pKd: −log10 of the molar value. Where “and” joins values, the source holds several entries; their conditions need not be identical. Identical values can stand only once. Each block holds one substance with its values, some of them ahead of it. No end group written: not given here.
Assays:
[1] = system: TWEAK-Fn14 signalling pathway, BRV5 cells; test: Cell-based screening of individual peptides, gene expression microarray in TWEAK-stimulated BRV5 cells; set-up: species or system human; conditions: 6 h; for BIRC2 mRNA expression (normalized to NARS2) / HSP90B1 mRNA expression (normalized to NARS2) / IL6 mRNA expression (normalized to NARS2) / JUN mRNA expression (normalized to NARS2) / MAP4K4 mRNA expression (normalized to NARS2) / MAPK14 mRNA expression (normalized to NARS2) / NFKB2 mRNA expression (normalized to NARS2) / TNFRSF12A mRNA expression (normalized to NARS2) / TRAF2 mRNA expression (normalized to NARS2): 450 µM
Source text: Pool 1 and 5 were therefore deconstructed to assess the effect of individual peptides and their activity on same cell-based screening. Pools 1 and 5 were composed of peptides 45, 46, 42, 3, 49, 11, and 13; and of peptides 1, 9, 30, 35, 41, 43, 7, and 14, respectively. As before, and shown in Figure 4B, the level of expression of probe genes on TWEAK-stimulated (T) BRV5 cells is overall higher than on non-stimulated (NT) one. […] The structural model of peptides 43, 30, 35 and 49 bound to TWEAK can be seen in Figure 5 and Supplementary Materials Figures S4–S6, respectively.
Three different cell lines were used in this study: BRV5, MDA-MB 435 (435-P), and HT29. The BRV5 is a highly metastatic brain cell line, obtained in one of our laboratories by primary culture from a brain of a nude mouse inoculated with human 435-Br1 brain metastatic cells, as previously described and used as a model to test the peptides in cell cultures. […] The triple negative 435-P cell line is a useful human breast cancer model that expresses both epithelial and melanocytic markers, and was included as the parental cell from which 435-Br1 metastatic variant was initially originated (both cell lines kindly provided by Dr Fabra at IDIBELL Institute, Hospitalet de Llobregat, Spain). Finally, HT29 human colon carcinoma cells obtained from the European Type Culture Collection (ECACC 91072201) were used as a positive control of TWEAK dependent Fn14 over-expressing cells to evaluate TWEAK-Fn14 axis of brain metastatic variants.
Appropriate cell culture conditions were established as the controls needed in the expression of genes with and without peptides and with and without TWEAK activation, both as pools and individually (see Supplementary Materials Figure S2). The protocol started with the seeding of 125,000 cells/well in 500 µL of culture media supplemented with 10% fetal bovine serum (CM+FBS10%) in 24-well dishes for 24 h before removing FBS (CM-FBS). After overnight starvation in CM-FBS culture, different peptide treatment conditions (at final concentration of 450 µM) were established in the presence or absence of TWEAK (25 ng/mL final concentration) (Peprotech EC, Ltd., London, UK). Some cells were treated with peptides at a single, unique, initial dose (time 0) while other were treated with repeated doses to account for the effect cell-culture degradation. These include a repeated treatment every hour (i.e., […]), every two hours (time 0, 2, and 4) and every three hours (time 0 and 3)—see Supplementary Materials Figure S2 for diagrammatic depiction. At time 6 (after six hours) cells were lysed and RNA extracted for transcriptomic analyses (see next). Cell were culture for six hours as this was the time needed to achieve the highest upregulation of the TWEAK-Fn14 axis upon TWEAK treatment as shown in previous time-course RT-PCR experiments (see Figure 2).
RNA from cells was extracted 6 h after treatments by direct lysis on the well. The RNeasy Micro kit (Qiagen, Hilden, Germany) was used to isolate total RNA from cell lysate following manufacturer’s protocols including an additional step of digestion with DNase I (Qiagen, Hilden, Germany). Total RNA concentration was measured in a NanoDrop 1000 spectrophotometer (Thermo Scientific, Waltham, MA, USA). The RNA extracted from treated and untreated cells (see above) was used as a proxy for gene expression.
The quantitative RT-PCR was performed using Fluidigm Dynamic Array FlexSix array with the specific primers for gene expression (Delta Genes Assays, Wet lab tested on Dynamic Array IFC) designed to RefSeq for detection by pPCR EvaGreen assay (Dynamic Array FlexSix, Fluidigm Corporation). Each Flex Six IFC has a total of six independent partitions. Each partition has a 12 × 12 format (12 assay inlets and 12 sample inlets) and will be run independently as a separate experimental run. […]

[2] = Precipitation in SPR running buffer; type: physicochemical; conditions: running buffer HBS-EP pH 7.4, 6.25 µM to 800 µM, 25 °C
Method: (§1) After chip validation, peptides selected on our cell-based microarray screening were tested.
Binding assays were performed at 25 °C in a Biacore 3000 instrument (GE Healthcare, Uppsala, Sweden) using nitrilotriacetic (NTA) sensor chips (GE Healthcare) and HBS-EP (0.01 M HEPES pH 7.4, 0.15 M NaCl, 3 mM EDTA, 0.005 % v/v Surfactant P20) as running buffer. Histidine-tagged human TWEAK (His6-TWEAK) protein (R&D Systems, Minneapolis, MN, USA) was covalently immobilized on the sensor surface using a capture coupling method. Briefly, the NTA surface was first stabilized by injection of regeneration buffer (20 μL EDTA-containing running buffer at 20 μL/min) followed by Ni^2+ binding to the surface (40 μL of 500 μM NiCl2 in running buffer at 20 μL/min). The carboxymethyl dextran surface was then activated for primary amine coupling by injecting coupling solution (30 μL of a 1:1 N-hydroxysuccinimide (NHS)/1-ethyl-3-[3-(dimethylamino)-propyl]carbodiimide hydrochloride (EDC) mixture at 5 μL/min). […]
Binding experiments using a monoclonal anti-TWEAK antibody (Abcam ref. 199405, Cambridge, UK) were run to ascertain adequate functionalization of the immobilized surface. […] The dissociation phase was monitored for 10 min at the same flow rate and followed by a regeneration step with 10 µL of 18 mM NaOH. […]

human His6-TWEAK protein = molecular target: T1, human His6-TWEAK protein (Homo sapiens, UniProt O43508); test: SPR binding of peptides to immobilized His6-TWEAK; conditions: 25 °C, 1:1 Langmuir global fit, representative of at least three independent experiments
T1 construct: purchased R&D Systems
T1 sequence (O43508 97-249 limits assumed): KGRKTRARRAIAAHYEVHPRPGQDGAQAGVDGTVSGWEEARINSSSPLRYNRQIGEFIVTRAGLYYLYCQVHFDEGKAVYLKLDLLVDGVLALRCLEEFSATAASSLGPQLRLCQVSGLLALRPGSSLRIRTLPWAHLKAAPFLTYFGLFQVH
Source text: SPR biosensor interaction analysis, a label-free screening approach, was used for real-time monitoring of the kinetics and affinity of peptide hits to TWEAK previously identified by cell-based screening. Peptides from pools 1 and 5 were selected both as positive (49, 30, 35 and 43) and negative hits (1 and 42). For our purposes, TWEAK was chosen as ligand, while peptides were chosen as analytes and passed across ligand-derivatized surface. Nitrilotriacetic acid-coated sensor chips (NTA chip) and a coupling approach that results in the capture of a His6-protein in a non-random orientation by the His6 epitope prior to direct free amine-based covalent coupling was used for histidine-tagged TWEAK immobilization.
as §1
For each titration, a zero-analyte surface as a control was subtracted from test sensorgram as well as non-specific binding to the blank flow cell without protein; and the chip surface was regenerated in order to remove any remaining analyte. The black curves show the experimental data, while the overlaid red lines represent a global fit of the entire data set to a 1:1 Langmurian interaction model. The fitting process provided both kinetic association and dissociation rate constants (Ka and Kd), as well as equilibrium dissociation constant (KD) values indicated in Figure 6.
Binding assays were performed at 25 °C in a Biacore 3000 instrument (GE Healthcare, Uppsala, Sweden) using nitrilotriacetic (NTA) sensor chips (GE Healthcare) and HBS-EP (0.01 M HEPES pH 7.4, 0.15 M NaCl, 3 mM EDTA, 0.005 % v/v Surfactant P20) as running buffer. Histidine-tagged human TWEAK (His6-TWEAK) protein (R&D Systems, Minneapolis, MN, USA) was covalently immobilized on the sensor surface using a capture coupling method. Briefly, the NTA surface was first stabilized by injection of regeneration buffer (20 μL EDTA-containing running buffer at 20 μL/min) followed by Ni^2+ binding to the surface (40 μL of 500 μM NiCl2 in running buffer at 20 μL/min). The carboxymethyl dextran surface was then activated for primary amine coupling by injecting coupling solution (30 μL of a 1:1 N-hydroxysuccinimide (NHS)/1-ethyl-3-[3-(dimethylamino)-propyl]carbodiimide hydrochloride (EDC) mixture at 5 μL/min). His6-TWEAK protein in pH 7.4 running buffer was then injected over the surface (60 μL of 10 μg/mL His6-TWEAK at 5 μL/min). To block uncoupled primary amines on the sensor surface, ethanolamine was passed over the surface (35 μL 1M ethanolamine at 5 μL/min). Ligand surfaces were finally conditioned with a 20 µL injection of regeneration solution containing 350 mM EDTA at 20 μL/min. Immobilization levels ranged from 1500 to 7000 resonance units (RUimmob) to test different ligand densities. A blank flow cell on the chip was created by simple injection of 20 μL of regeneration buffer injected over the sensor surface.
Binding experiments using a monoclonal anti-TWEAK antibody (Abcam ref. 199405, Cambridge, UK) were run to ascertain adequate functionalization of the immobilized surface. Selected synthetic TWEAK-Fn14 inhibitory peptides at two-fold serial dilutions from 800 µM to 0 µM in running buffer were flown over the chip for 5 min at 35 µL/min. The dissociation phase was monitored for 10 min at the same flow rate and followed by a regeneration step with 10 µL of 18 mM NaOH. Specific binding responses for each channel were obtained by double referencing; subtracting non-specific binding to the blank flow cell plus an internal reference standard, namely buffer injection response. Each sample was run in triplicate. The experimental data were fitted to a 1:1 Langmuir binding model by the BIAevaluation software version 4.1 (GE Healthcare, Uppsala, Sweden).

[3] = individual peptides, BRV5 + TWEAK, mean of replicate columns
[4] = individual peptides, BRV5 + TWEAK, replicate column 1
[5] = individual peptides, BRV5 + TWEAK, replicate column 2
[6] = individual peptides, BRV5 + TWEAK, normalized to NARS2, listed as P30

Substance: 30: DNGGGNTDIYSE [Peptide 30]
regulation of probe genes by individual peptides ([1]; BRV5 + TWEAK 25 ng/mL, peptides 450 µM): lowest overall expression across all genes
BIRC2 mRNA expression (normalized to NARS2) [1, 3]: 0.4705
HSP90B1 mRNA expression (normalized to NARS2) [1, 3]: 1.723
IL6 mRNA expression (normalized to NARS2) [1, 3]: 0.001837
JUN mRNA expression (normalized to NARS2) [1, 3]: 0.05309
MAP4K4 mRNA expression (normalized to NARS2) [1, 3]: 0.1227
MAPK14 mRNA expression (normalized to NARS2) [1, 3]: 0.1367
NFKB2 mRNA expression (normalized to NARS2) [1, 3]: 0.02657
TNFRSF12A mRNA expression (normalized to NARS2) [1, 3]: 0.01074
TRAF2 mRNA expression (normalized to NARS2) [1, 3]: 0.01042
BIRC2 mRNA expression (normalized to NARS2) [1, 4]: 0.46
HSP90B1 mRNA expression (normalized to NARS2) [1, 4]: 1.5246
IL6 mRNA expression (normalized to NARS2) [1, 4]: 0.001779
JUN mRNA expression (normalized to NARS2) [1, 4]: 0.05111
MAP4K4 mRNA expression (normalized to NARS2) [1, 4]: 0.1133
MAPK14 mRNA expression (normalized to NARS2) [1, 4]: 0.1336
NFKB2 mRNA expression (normalized to NARS2) [1, 4]: 0.02493
TNFRSF12A mRNA expression (normalized to NARS2) [1, 4]: 0.00974
TRAF2 mRNA expression (normalized to NARS2) [1, 4]: 0.009779
BIRC2 mRNA expression (normalized to NARS2) [1, 5]: 0.481
HSP90B1 mRNA expression (normalized to NARS2) [1, 5]: 1.9206
IL6 mRNA expression (normalized to NARS2) [1, 5]: 0.001894
JUN mRNA expression (normalized to NARS2) [1, 5]: 0.05506
MAP4K4 mRNA expression (normalized to NARS2) [1, 5]: 0.1321
MAPK14 mRNA expression (normalized to NARS2) [1, 5]: 0.1398
NFKB2 mRNA expression (normalized to NARS2) [1, 5]: 0.02821
TNFRSF12A mRNA expression (normalized to NARS2) [1, 5]: 0.01174
TRAF2 mRNA expression (normalized to NARS2) [1, 5]: 0.01106
BIRC2 expression Z-Score [1, 6]: -0.6095
HSP90B1 expression Z-Score [1, 6]: -0.9208
IL6 expression Z-Score [1, 6]: -0.0450 and -0.04503
JUN expression Z-Score [1, 6]: -0.5095
MAP4K4 expression Z-Score [1, 6]: -1.5551 and -1.555
MAPK14 expression Z-Score [1, 6]: -1.1124 and -1.112
NFKB2 expression Z-Score [1, 6]: -1.3232 and -1.323
TNFRSF12A expression Z-Score [1, 6]: -1.112
TRAF2 expression Z-Score [1, 6]: -0.4386
precipitation [2]: precipitated at all concentrations tested

kon (human His6-TWEAK protein; HBS-EP pH 7.4, Biacore 3000, NTA chip, read-out: ka): 20.5 M⁻¹ s⁻¹
pKd (human His6-TWEAK protein; figure 6, HBS-EP pH 7.4, 6.25 µM to 800 µM peptide): 3.76
Substance: TTDGSTGDDLQA-NH2 [Peptide 43]

From article PMC7866087, “Evaluation of Computationally Designed Peptides against TWEAK, a Cytokine of the Tumour Necrosis Factor Ligand Family” (International Journal of Molecular Sciences, 2021)
